Data taken from patent publication US20240287003A1, “ETHACRYNIC ACID DERIVATIVES AS INHIBITORS OF MPRO PROTEASE AND SARS-COV-2 REPLICATION” (UNIVERSITE EUROMEDITERRANEENNE DE FES, priority 2021, published 2024).
Where two headings read alike, the source gives them in different places.

Assays:
Mpro = Mpro (Severe acute respiratory syndrome coronavirus 2, UniProt P0DTD1); settings: read-out: IC50 (half-maximal inhibitory concentration), Dai et al., Science 2020; cited from earlier work
SARS-COV-2 [1] = settings: VeroE6 cells, RNA replication by qPCR; Hattori et al. 2021; read-out: EC50, blocking of SARS-COV-2 infection; cited from earlier work
SARS-COV-2 [2] = assay: microbe, parasite or virus in culture; type: cell-based; settings: Vero cells; for reduction in infectivity titres compared with the control: 10 μM; for reduction in the infectivity titres compared with the control: 4 h pre-incubation, MOI 0.04, 48 h; for inhibition at 8 µM / inhibition at 6 µM: Severe acute respiratory syndrome coronavirus 2; for inhibition at 8 µM: read-out: inhibition percentage; for inhibition at 6 µM: read-out: inhibition of viral replication
SARS-COV-2 [3] = settings: Rut et al., Nat. Chem. Biol. 2021; cited from earlier work
[4] = 6 μM, same experimental conditions

| Molecule | reduction in infectivity titres compared with the control (SARS-COV-2 [2]; same experimental conditions) | reduction in the infectivity titres compared with the control (SARS-COV-2 [2]; 16.6 μM) | inhibition at 8 µM (SARS-COV-2 [2]; same experimental conditions) | inhibition at 6 µM (SARS-COV-2 [2]; [4]) | other results |
| --- | --- | --- | --- | --- | --- |
| O=C[C@H](C[C@@H]1CCNC1=O)NC(=O)[C@H](Cc1cccc(F)c1)NC(=O)c1cc2ccccc2[nH]1 [11b] | – | – | – | – | IC50 (Mpro): 0.04 µM |
| O=C(Oc1cncc(Cl)c1)c1cccc2c1CCN2 [GRL-1720] | – | – | – | – | EC50 (SARS-COV-2 [1]): 15 ± 4 µM |
| C=C(CC)C(=O)c1ccc(OCC(=O)Nc2ccc3c(cnn3C)c2)c(Cl)c1Cl [P7, 2-(2,3-dichloro-4-(2-methylenebutanoyl)phenoxy)-N-(1-methyl-1H-indazol-5-yl)acetamide] | 100% | 100% | ~96.7% | – | inhibition of viral replication (SARS-COV-2 [2]; [4]): did not inhibit virus replication at all |
| C=C(CC)C(=O)c1ccc(OCC(=O)Nc2ccc3[nH]ncc3c2)c(Cl)c1Cl [P26, 2-(2.3-dichloro-4-(2-methylenebutanoyl)phenoxy)-N-(1H-indazol-5-yl)acetamide] | 93.09% | 97.96% | ~52.1% | ~30% | – |
| C=C(CC)C(=O)c1ccc(OCC(=O)Nc2cccc3cn(C)nc23)c(Cl)c1Cl [P30, 2-(2,3-dichloro-4-(2-methylenebutanoyl)phenoxy)-N-(2-methyl-2H-indazol-7-yl)acetamide] | 100% | – | ~99.7% | ~30% | reduction in the infectivity titres compared with the control (SARS-COV-2 [2]; 5.54 μM): 96.75% |
| Ac-Abu-dTyr-Leu-Gln-VS [Ac-QSS-VS (15)] | – | – | – | – | EC50 (SARS-COV-2 [3]): 3.7 µM |
